# Results reported in article PMC7660940, “Gerardiins A–L and Structurally Related Phenanthrenes from the Halophyte Plant Juncus gerardii and Their Cytotoxicity against Triple-Negative Breast Cancer Cells” (Journal of Natural Products, 2020).
# Read-outs that look alike come from different tables or passages of the source.
# Assays:
# [1] = test system: 4T1 (mouse triple-negative breast cancer cells); assay: MTT viability assay / IC50 determination in 4T1 cells; assay type: cell-based; settings: for cytotoxic effect on 4T1 cells, MTT assay: 20 μM; for cytotoxic effect on 4T1 cells, MTT assay / cytotoxicity (viability of 4T1 cells), MTT assay: 48 h; for cytotoxicity (viability of 4T1 cells), MTT assay: 10 or 20 μM, Figure S74; for IC50: MTT assay, 48 h treatment, n = 6–8, read-out: IC50 [95% C.I.], 4T1
# Protocol: (§1) 4T1 (mouse triple-negative breast cancer cells) were cultured in RPMI (Roswell Park Memorial Institute) 1640 medium supplemented with 5% fetal bovine serum (FBS) (both from Thermo Fisher Scientific, Waltham, MA, USA). MDA-MB-231 (human triple-negative breast cancer cells, abbreviated as MDA) were cultured in DMEM (Dulbecco’s modified Eagle’s medium, Thermo Fisher Scientific) + 5% FBS. D3 (hCMEC/D3 human cerebral microvascular endothelial cells) were kept in rat tail collagen-coated dishes in EBM-2 (endothelial basal medium-2, Lonza, Basel, Switzerland) complemented with 2% FBS and an EGM-2MV kit (Lonza).
# (§2) Viability and impedance measurements were performed in the log growth phase of tumor cells and in the stationary phase of endothelial cells.
# (§3) For the MTT (3-[4,5-dimethylthiazole-2-yl]-2,5-diphenyltetrazolium bromide) viability assay, cells were plated in 96-well plates (Corning, Corning, NY, USA). The seeding density of the cells was 5000/well (for 4T1 or MDA cells) or 25 000/well (for D3 cells). After 48 h, half of the medium was replaced with serum-free medium, containing the test compounds in a final concentration of 10 or 20 μM. Control wells received solvent (DMSO) in up to a 0.2% concentration. After 48 h, MTT reagent (Sigma-Aldrich, St. Louis, MO, USA) was added to the cells in a final concentration of 2.5 mg/mL. After incubation at 37 °C for 30 min, acidified isopropanol solution was added to each well. Absorbance was measured at 595 nm with a FLUOstar OPTIMA microplate reader (BMG LABTECH, Offenburg, Germany). Doxorubicin was used as a positive control, at a concentration of 10 μM.
# (§4) For determining IC50 values, nine-step, 2-fold serial dilutions of the test compounds were applied, starting from 100 μM. Cells were treated for 48 h, and viability was measured with the MTT assay, as described above. Half-maximum inhibitory concentrations (IC50) were calculated via nonlinear dose–response curve fitting by the log(inhibitor) vs response (variable slope) model of GraphPad Prism 5.01 (GraphPad Software, San Diego, CA, USA) by using automatic outlier elimination at Q = 1.0.
# [2] = test system: 4T1 (mouse triple-negative breast cancer cells); assay: Impedance measurement (xCELLigence RTCA, cell index) in 4T1 cells; assay type: cell-based; settings: 20 μM, 48 h
# Protocol: as §1, §2
# For impedance measurements, cells were plated in 96-well E-plates having microelectrodes integrated on the bottom (ACEA Biosciences, San Diego, CA, USA) and allowed to attach onto the electrode surface for 48 h. Afterward, cells were treated with the test compounds as described above. Electrical impedance was recorded every 30 min for 48 h using an xCELLigence real-time cell analysis (RTCA) instrument (ACEA Biosciences). Cell index was automatically calculated by the software of the instrument.
# [3] = test system: D3 (hCMEC/D3 human cerebral microvascular endothelial cells); assay: MTT viability assay / IC50 determination in D3 endothelial cells; assay type: cell-based; settings: for cytotoxicity (viability of D3 cells), MTT assay: 10 or 20 μM, 48 h, Figure S74; for IC50: MTT assay, 48 h treatment, n = 6–8, read-out: IC50 [95% C.I.], D3
# Protocol: as §1, §2, §3, §4
# [4] = test system: MDA-MB-231 (human triple-negative breast cancer cells); assay: MTT viability assay / IC50 determination in MDA-MB-231 cells; assay type: cell-based; settings: for cytotoxicity (viability of MDA cells), MTT assay: 10 or 20 μM, 48 h, Figure S74; for IC50: MTT assay, 48 h treatment, n = 6–8, read-out: IC50 [95% C.I.], MDA-MB-231
# Protocol: as §1, §2, §3, §4
# [5] = test system: A2780 human ovarian cancer cells; parameters: method as in Bús et al. 8; settings: ref Bús et al. 8; cited from earlier work
# [6] = test system: HeLa cervical cancer cells; parameters: method as in PMID 31005716; settings: cited from earlier work
Molecule,"cytotoxic effect on 4T1 cells, MTT assay [1]","cytotoxic effect on 4T1 cells, impedance measurements (cell index) [2]","cytotoxicity (viability of D3 cells), MTT assay [3]","cytotoxicity (viability of 4T1 cells), MTT assay [1]","cytotoxicity (viability of MDA cells), MTT assay [4]",other results
"Cc1c(O)ccc2c1CCc1cc(O)cc(C=O)c1-2 [2,7-dihydroxy-5-formyl-1-methyl-9,10-dihydrophenanthrene]",not cytotoxic,not cytotoxic,–,–,–,–
"Cc1c(O)ccc2c1CCc1cc(O)cc(CO)c1-2 [2,7-dihydroxy-5-hydroxymethyl-1-methyl-9,10-dihydrophenanthrene]",not cytotoxic,not cytotoxic,–,–,–,–
"C=Cc1cc(O)cc2c1-c1ccc(OC)c(C)c1CC2 [7-hydroxy-2-methoxy-1-methyl-5-vinyl-9,10-dihydrophenanthrene]",not cytotoxic,not cytotoxic,–,–,–,–
"Cc1c(O)ccc2c1CCc1cc(O)cc(C3CC=Cc4c5c(cc(O)c43)CCc3c-5ccc(O)c3C)c1-2 (stereo not drawn) [Compound 9, Gerardiin I]",–,–,cytotoxic,cytotoxic,cytotoxic,"IC50 ([3]; Homo sapiens, hCMEC/D3): 21.6 µM; IC50 [1]: 7.8 µM; IC50 ([1]; Mus musculus, 4T1, 48 h): < 10 µM; IC50 ([4]; Homo sapiens, MDA-MB-231, 48 h): < 10 µM; IC50 [4]: 8 µM"
"C=Cc1cc(O)c(Cc2c(O)cc(C=C)c3c2ccc2c(C)c(O)ccc23)c2c1-c1ccc(O)c(C)c1CC2 [Compound 12, Gerardiin L]",–,–,cytotoxic,cytotoxic,cytotoxic,"IC50 ([3]; Homo sapiens, hCMEC/D3): 13.7 µM; IC50 [1]: > 10 µM; IC50 ([1]; Mus musculus, 4T1, 48 h): 11.7 µM; IC50 ([4]; Homo sapiens, MDA-MB-231, 48 h): 7.3 µM"
"C=Cc1cc(O)cc2c1-c1ccc(O)c(C)c1CC2 [Compound 13, effusol]",–,–,no or very low cytotoxicity,no or very low cytotoxicity,no or very low cytotoxicity,–
"C=Cc1cc(O)cc2ccc3c(C)c(O)ccc3c12 [Compound 14, dehydroeffusol]",–,–,no or very low cytotoxicity,no or very low cytotoxicity,no or very low cytotoxicity,–
"C=Cc1cc(O)cc2c1-c1cc(-c3cc4c(c(C)c3O)CCc3cc(O)cc(C=C)c3-4)c(O)c(C)c1CC2 [Compound 15, Effususin A]",–,–,cytotoxic,cytotoxic,cytotoxic,toxicity in A2780 human ovarian cancer cells [5]: moderate toxicity
C=Cc1c(C)c(O)cc2c1-c1ccc(OC)c(C)c1CC2 [compressin A],not cytotoxic,not cytotoxic,–,–,–,–
"COc1cccc2c1C(=O)c1c(O)c3c(c(O)c1C2=O)C[C@@](O)(C(=O)CO)C[C@@H]3O[C@H]1C[C@H](N)[C@H](O)[C@H](C)O1 [doxorubicin, reference compound]",–,–,–,–,–,"IC50 ([3]; Homo sapiens, hCMEC/D3): 0.8 µM; IC50 ([1]; Mus musculus, 4T1, 48 h): 3.4 µM; IC50 ([4]; Homo sapiens, MDA-MB-231, 48 h): 0.8 µM"
COC(C)c1cc(O)cc2c1-c1ccc(O)c(C)c1CC2 (stereo not drawn) [effususol A],not cytotoxic,not cytotoxic,–,–,–,–
C=C[C@@]1(C)C(=O)C2=C(C[C@H]1O)c1ccc(O)c(C)c1CC2 [jinflexin C],–,moderate cytotoxicity,–,–,–,–
C=Cc1c(C)c(O)cc2c1-c1ccc(O)c(C)c1CC2 [juncusol],moderate cytotoxicity,moderate cytotoxicity,–,–,–,antiproliferative activity against HeLa cervical cancer cells [6]: antiproliferative activity
Gerardiin J [Compound 10],–,–,cytotoxic,cytotoxic,cytotoxic,IC50 [3]: 15.7 µM; IC50 [1]: 5.6 µM; IC50 [4]: 6.6 µM
Gerardiin K [Compound 11],–,–,cytotoxic,cytotoxic,cytotoxic,IC50 [3]: 10.6 µM; IC50 [1]: 8.1 µM; IC50 [4]: > 10 µM
